Reference: US12617837B2, “Composition for use in treatment of allergic diseases” (UNIVERSITY OF TSUKUBA, priority 2019, dated 2026)

T1: mouse Clec10a (Mus musculus, UniProt P49300)
T1 construct: an extracellular and transmembrane portions of Clec10a fused to a cytoplasmic portion of CD3; expressed in transfected cells; host or cells: 2B4-NFAT-GFP reporter cells, pMXs-puro retroviral vector
T1 sequence (P49300 57-304 limits assumed): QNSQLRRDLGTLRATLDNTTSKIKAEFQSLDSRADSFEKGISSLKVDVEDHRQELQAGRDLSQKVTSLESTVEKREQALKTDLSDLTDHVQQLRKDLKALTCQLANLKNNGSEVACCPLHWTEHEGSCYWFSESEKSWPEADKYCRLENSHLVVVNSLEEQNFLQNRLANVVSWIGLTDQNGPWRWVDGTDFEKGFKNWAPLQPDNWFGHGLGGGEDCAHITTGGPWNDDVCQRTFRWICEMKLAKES

T2: Clec10a-Fc (Mus musculus, UniProt P49300)
T2 construct: cloning the extracellular region of mouse Clec10a into a pME18S expression vector; made in house; host or cells: HEK293T cells
T2 sequence (P49300 57-304 limits assumed): T1 sequence (P49300 57-304 limits assumed)

B1: PNA (protein, UniProt P02872 24-273, looked up)
Galactose-binding lectin: AETVSFNFNSFSEGNPAINFQGDVTVLSNGNIQLTNLNKVNSVGRVLYAMPVRIWSSATGNVASFLTSFSFEMKDIKDYDPADGIIFFIAPEDTQIPAGSIGGGTLGVSDTKGAGHFVGVEFDTYSNSEYNDPPTDHVGIDVNSVDSVKTVPWNSVSGAVVKVTVIYDSSTKTLSVAVTNDNGDITTIAQVVDLKAKLPERVKFGFSASGSLGGRQIHLIRSWSFTSTLITTTRRSIDNNEKKIMNMASA
B2: AAL (protein, UniProt P18891 2-313, looked up)
Fucose-specific lectin: PTEFLYTSKIAAISWAATGGRQQRVYFQDLNGKIREAQRGGDNPWTGGSSQNVIGEAKLFSPLAAVTWKSAQGIQIRVYCVNKDNILSEFVYDGSKWITGQLGSVGVKVGSNSKLAALQWGGSESAPPNIRVYYQKSNGSGSSIHEYVWSGKWTAGASFGSTVPGTGIGATAIGPGRLRIYYQATDNKIREHCWDSNSWYVGGFSASASAGVSIAAISWGSTPNIRVYWQKGREELYEAAYGGSWNTPGQIKDASRPTPSLPDTFIAANSSGNIDISVFFQASGVSLQQWQWISGKGWSIGAVVPTGTPAGW
B3: rPAIL (protein, UniProt Q05097 2-122, looked up)
PA-I galactophilic lectin: AWKGEVLANNEAGQVTSIIYNPGDVITIVAAGWASYGPTQKWGPQGDREHPDQGLICHDAFCGALVMKIGNSGTIPVNTGLFRWVAPNNVQGAITLIYNDVPGTYGNNSGSFSVNIGKDQS

Assays:
mouse Clec10a = target: T1, mouse Clec10a; test: Mouse Clec10a-CD3ζ NFAT-GFP reporter cell assay; type: cell-based; conditions: stimulation with coated plates, 18 hours, flow cytometry
Procedure: The intracellular region of human CD3ζ was obtained from a vector provided by LL Lanier (University of California, San Francisco). The extracellular region of mouse or human Clec10a or the extracellular region of human Asgr1 was subcloned into a pMXs-puro retroviral vector. 2B4-NFAT-GFP reporter cells were provided from H. Arase (University of Osaka). 2B4-NFAT-GFP reporter cells stably expressing mouse or human Clec10a were made as described previously. The reporter cells were incubated for 18 hours in the presence or absence of anti-Clec10a mAb, Lewis X (GlycoTech), Lewes Y (GlycoTech), galactose (Sigma-Aldrich), glucose (Sigma-Aldrich) or mannose (Sigma-Aldrich). The reporter cells were also cultured on a galactosidase (R & D Systems, 5704 GH or 5549 GH) or glucosidase (R & D Systems, 8329-GH), or Clec10 ligand-coated plate, or an HDM extract-coated plate treated with size-fractionated Clec10a ligand or untreated. Activation of NFAT-GFP was monitored by flow cytometry.
To test whether Clec10a recognized glycosylated proteins contained in HDM, NFAT-GFP reporter cells (Clec10a reporter cells) were made which expressed chimeric fusion proteins inch ling an extracellular and transmembrane portions of Clec10a fused to a cytoplasmic portion of CD3.

human IgG1 = test: Glycan microarray probed with human IgG1 (control of Table 7); type: binding
Clec10a-Fc = target: T2, Clec10a-Fc; test: Sugar conjugate (glycan) microarray analysis of Clec10a-Fc (Table 7); type: binding; conditions: for Signal value, Clec10a-Fc: glycan microarray probed with Clec10a-Fc; for Signal value, Clec10a-Fc with EDTA: glycan microarray probed with Clec10a-Fc with EDTA
Procedure: A sugar conjugate microarray containing 98 sugar conjugates (Table 3) was prepared according to a known method using a non-contact microarray printing robot (MicroSys 4000; Genomic Solutions).

[1] = system: lectins (96 lectins of Table 2); test: Lectin microarray analysis of Clec10a ligand in HDM (Table 6); type: binding; conditions: for Signal value, Target: Target: Pull-down assay sample from HDM using Clec10a-Fc (Clec10a ligand), signal at each lectin spot of the lectin microarray
Procedure: Lectin microarrays were made using a non-contact microarray printing robot (MicroSys4000; Genomic Solutions) according to the previous method. Samples were fluorescently labeled with Cy3 Mono-Reactive dye (Ge) and excess Cy3 was removed using a Sephadex g-25 desalting column (Ge). After 10 fold dilution with a probe solution (25 mM Tris-HCl, pH 7.5, 140 mM NaCl) (TBS) containing 2.7 mM KCl, 1 mM CaCl2, 1 mM MnCl2, and 1% Triton X-100, a Cy3-labeled sample was applied to a lectin microarray and incubated at 20° C. overnight. The sample was washed with a probe solution, and a fluorescence image was obtained using an evanescent-field activated fluorescence scanner (Bio-Rad scan 200, Rexxam Co. Ltd.). Lectin signals in triplicate spots were averaged for each protein sample and normalized to an average value of 96 lectins.

| Molecule | GFP expression in mouse Clec10a reporter cells (mouse Clec10a) | Signal value, human IgG1 (human IgG1) | Signal value, Clec10a-Fc (Clec10a-Fc) | Signal value, Clec10a-Fc with EDTA (Clec10a-Fc) | Binding to lectins in lectin microarray ([1]; Cy3-labeled sample) | Signal value, Target [1] | Binding of Clec10a-Fc in glycan microarray (Clec10a-Fc; Clec10a-Fc 10 μg/mL) |
| --- | --- | --- | --- | --- | --- | --- | --- |
| CC(=O)N[C@@H]1[C@@H](O[C@@H]2O[C@@H](C)[C@@H](O)[C@@H](O)[C@@H]2O)[C@H](O[C@@H]2O[C@H](CO)[C@H](O)[C@H](O)[C@H]2O)[C@@H](CO)O[C@H]1O [Lewis X, reference compound] | expressed GFP |  |  |  |  |  |  |
| O=S(=O)(O)O[C@@H]1[C@@H](O)[C@H](O)O[C@H](CO)[C@@H]1O [[3S] βGal] |  | 0 | 3 | 0 |  |  |  |
| CC(=O)N[C@@H]1[C@@H](O[C@@H]2O[C@H](CO)[C@H](O)[C@H](OS(=O)(=O)O)[C@H]2O)[C@H](O[C@@H]2O[C@@H](C)[C@@H](O)[C@@H](O)[C@@H]2O)[C@@H](CO)O[C@H]1O [[3S]Lea] |  | 0 | 0 | 0 |  |  |  |
| CC(=O)N[C@@H]1[C@@H](O)[C@H](O[C@@H]2O[C@H](CO)[C@H](O)[C@H](O[C@]3(C(=O)O)C[C@H](O)[C@@H](NC(C)=O)[C@H]([C@H](O)[C@H](O)CO)O3)[C@H]2O)[C@@H](CO)O[C@H]1O [[3′S]LN] |  | 0 | 0 | 0 |  |  |  |
| CC(=O)N[C@@H]1[C@@H](O[C@@H]2O[C@H](CO)[C@H](O)[C@H](OS(=O)(=O)O)[C@H]2O)[C@H](O)[C@@H](CO)O[C@H]1O [[3′S]Lec] |  | 0 | 0 | 0 |  |  |  |
| O=P(O)(O)OC[C@H]1O[C@H](O)[C@@H](O)[C@@H](O)[C@@H]1O [[6P]Man] |  | 0 | 0 | 0 |  |  |  |
| CC(=O)N[C@@H]1[C@@H](O)[C@H](O)[C@@H](COS(=O)(=O)O)O[C@H]1O [[6S]BGlcNAc] |  | 318 | 0 | 0 |  |  |  |
| CC(=O)N[C@@H]1[C@@H](O)[C@H](O[C@@H]2O[C@H](CO)[C@H](O)[C@H](O)[C@H]2O)[C@@H](COS(=O)(=O)O)O[C@H]1O [[6S]LN] |  | 0 | 0 | 0 |  |  |  |
| CC(=O)N[C@@H]1[C@@H](O)[C@H](O[C@@H]2O[C@H](COS(=O)(=O)O)[C@H](O)[C@H](O)[C@H]2O)[C@@H](CO)O[C@H]1O [[6′S]LN] |  | 0 | 0 | 0 |  |  |  |
| CC(=O)N[C@@H]1[C@@H](O[C@@H]2O[C@H](CO)[C@H](O)[C@H](O)[C@H]2NC(C)=O)[C@@H](O)[C@@H](CO)O[C@H]1O [di-GalNAcβ] |  | 0 | 65 | 0 |  |  |  |
| CC(=O)N[C@@H]1[C@@H](O[C@@H]2O[C@H](CO)[C@H](O)[C@H](O[C@]3(C(=O)O)C[C@H](O)[C@@H](NC(C)=O)[C@H]([C@H](O)[C@H](O)CO)O3)[C@H]2O)[C@H](O[C@@H]2O[C@@H](C)[C@@H](O)[C@@H](O)[C@@H]2O)[C@@H](CO)O[C@H]1O [sLea] |  | 0 | 0 | 0 |  |  |  |
| CC(=O)N[C@@H]1[C@@H](O[C@@H]2O[C@@H](C)[C@@H](O)[C@@H](O)[C@@H]2O)[C@H](O[C@@H]2O[C@H](CO)[C@H](O)[C@H](O[C@]3(C(=O)O)C[C@H](O)[C@@H](NC(C)=O)[C@H]([C@H](O)[C@H](O)CO)O3)[C@H]2O)[C@@H](CO)O[C@H]1O [sLex] |  | 0 | 1 | 0 |  |  |  |
| OC[C@H]1O[C@H](O)[C@@H](O)[C@@H](O)[C@@H]1O [αMan] |  | 0 | 0 | 0 |  |  |  |
| CC(=O)N[C@@H]1[C@@H](O)[C@@H](O)[C@@H](CO)O[C@H]1O [βGalNAc] |  | 0 | 6 | 0 |  |  |  |
| OC[C@H]1O[C@@H](O)[C@H](O)[C@@H](O)[C@H]1O [βGal] |  | 0 | 1867 | 0 |  |  |  |
| OC[C@H]1O[C@@H](O)[C@@H](O)[C@@H](O)[C@@H]1O [βMan] |  | 0 | 0 | 0 |  |  |  |
| Chitobiose |  | 0 | 0 | 0 |  |  |  |
| Clec10a |  |  |  |  | most strongly bound to the lectins of Maclura pomifera (MPA) |  |  |
| PHAL |  | 0 | 0 | 0 |  | 0 |  |
| rGal7 |  | 0 | 0 | 0 |  | 0 |  |
| rMalectin |  | 0 | 0 | 0 |  | 0 |  |
| αGalNAc [Tn antigen] |  | 0 | 682 | 0 |  |  | binds |
| B1 |  |  |  |  |  | 10699 |  |
| B2 |  |  |  |  |  | 7508 |  |
| B3 |  | 0 | 0 | 0 |  | 0 |  |
